Results reported in EP0089139A2, “Antibiotics, their preparation and use” (BEECHAM GROUP PLC, priority 1982, dated 1983).
≈ marks a conversion by molar mass, not a printed value. Read-outs that look alike come from different tables or passages of the source.

Assays:
Assay in all cases: standard MIC test
Type in all cases: cell-based
[1] = test system: Staphylococcus aureus Russell
Text: (§1) In a standard MIC test the following data were obtained.

[2] = test system: Salmonella typhimurium CT10; conditions: Salmonella enterica
Text: as §1

[3] = test system: Escherichia coli 0111
Text: as §1

[4] = test system: E.coli JT39; conditions: Escherichia coli
Text: as §1

MIC ([4]; E.coli JT39, read-out: M.I.C) [µg/mL] | MIC ([1]; Staphylococcus aureus Russell, read-out: MIC) [µg/mL] | MIC ([2]; Salmonella typhimurium CT10, read-out: MIC) [µg/mL] | SMILES | MIC ([1]; Staphylococcus aureus) [µg/mL] | MIC ([2]; TYPHIMURIUM) [µg/mL] | MIC [3] [µg/mL] | MIC ([4]; JT39) [µg/mL]
– | – | – | C[C@H](O)[C@@H]1C(=O)N2C(C(=O)[O-])=C(Sc3ncccn3)[C@H](C)[C@@H]12.[Na+] (racemic) [Example 16, Sodium (4RS,5RS,6RS)-4-methyl-6-[(1SR)-1-hydroxyethyl]-3-(pyrimidin-2-ylthio)-7-oxo-1-azabicyclo[3.2.0]hept-2-ene-2-carboxylate] | 0.4 | 1.6 | 1.6 | –
– | – | – | C[C@@H]1C(Sc2ncccn2)=C(C(=O)[O-])N2C(=O)[C@H]([C@@H](C)O)[C@@H]12.[Na+] [Example 30, Sodium (4S,5S,6S)-4-methyl-6-[(1R)-1-hydroxyethyl]-3-(pyrimidin-2-ylthio)-7-oxo-1-azabicyclo [3.2.0] hept-2-ene-2-carboxylate] | 0.8 | 3.1 | – | 0.8
1.6 (≈ 4.98 µM) | 0.4 (≈ 1.24 µM) | 6.2 (≈ 19.3 µM) | C[C@@H](O)[C@H]1C(=O)N2C(C(=O)O)=C(Sc3ncccn3)[C@H](C)[C@H]12 (racemic) [Example 40] | – | – | – | –
